Data on 15 molecules can be found in US9409907B2, “Inhibitor compounds” (Cancer Research Technology Limited, priority 2012, dated 2016).

In this assay the target is full length MPS1 (Homo sapiens (Human), UniProt P33981). In words: Measurement of inhibition of MPS1 kinase (Caliper EZ reader mobility-shift enzyme assay). The format is biochemical. As to conditions: full length MPS1 12.5 nM or 3 nM, H236 peptide 5 μM, ATP 10 μM, 60 min at room temperature. The procedure: Measurement of Inhibition of MPS1 Kinase
full length MPS1, sequence (P33981 whole entry): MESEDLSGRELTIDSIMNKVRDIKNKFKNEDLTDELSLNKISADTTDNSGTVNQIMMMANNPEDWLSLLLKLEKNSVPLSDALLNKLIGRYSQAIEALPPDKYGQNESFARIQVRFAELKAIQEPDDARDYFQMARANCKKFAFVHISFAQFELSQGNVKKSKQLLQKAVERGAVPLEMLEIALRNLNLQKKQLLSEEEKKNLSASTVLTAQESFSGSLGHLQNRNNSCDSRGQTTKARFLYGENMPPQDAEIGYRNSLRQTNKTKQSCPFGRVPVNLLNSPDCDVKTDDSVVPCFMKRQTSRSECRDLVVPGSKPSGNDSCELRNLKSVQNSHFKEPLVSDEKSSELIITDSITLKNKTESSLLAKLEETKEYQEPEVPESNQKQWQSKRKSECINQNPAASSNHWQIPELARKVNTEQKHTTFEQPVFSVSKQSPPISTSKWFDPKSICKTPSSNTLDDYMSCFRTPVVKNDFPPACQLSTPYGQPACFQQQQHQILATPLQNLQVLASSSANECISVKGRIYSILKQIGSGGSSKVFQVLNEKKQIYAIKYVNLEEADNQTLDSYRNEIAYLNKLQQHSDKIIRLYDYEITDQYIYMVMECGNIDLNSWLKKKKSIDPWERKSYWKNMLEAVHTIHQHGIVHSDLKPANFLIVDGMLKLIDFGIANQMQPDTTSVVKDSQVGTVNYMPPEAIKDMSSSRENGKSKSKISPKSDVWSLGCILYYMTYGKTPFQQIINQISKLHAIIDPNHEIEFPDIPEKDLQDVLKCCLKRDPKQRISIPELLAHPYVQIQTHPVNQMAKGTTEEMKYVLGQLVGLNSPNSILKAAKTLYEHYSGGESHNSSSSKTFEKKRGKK
The reaction was carried out for 60 min at room temperature and stopped by the addition of buffer (10 μl) containing 20 mM EDTA, 0.05% (v/v) Brij-35, in 0.1M HEPES-buffered saline (Free acid, Sigma, UK). The plate was read on a Caliper EZ reader II (Caliper Life Sciences).
The % inhibition of the compounds is calculated relative to the means of selected control wells.
On to `COc1cc(-c2ncnn2C)ccc1Nc1ncc2cc(C)nc(NCC(C)(C)OC)c2n1` [Example 196], for which the IC50 amounted to 20 nM. For the molecule `CCOc1cc(-c2nncn2C)ccc1Nc1ncc2ccnc(NCC3(C)CCOC3)c2n1` (stereo not drawn) [Example 189], the IC50 is 1 nM. Next, `COc1cc(C(=O)N2CCN(C)CC2)ccc1Nc1ncc2ccnc(NCC(C)(C)OC)c2n1` [Example 195]: 8 nM; `COc1cc(-c2cnn(C)c2)ccc1Nc1ncc2ccnc(Cl)c2n1` [Example 94, 8-chloro-N-(2-methoxy-4-(1-methyl-1H-pyrazol-4-yl)phenyl)pyrido[3,4-d]pyrimidin-2-amine]: 164 nM. Next, `COc1nc(-c2cnn(C)n2)ccc1Nc1ncc2ccnc(NCC(C)(C)OC)c2n1` [Example 167, N^8-(2-Methoxy-2-methylpropyl)-N^2-(2-methoxy-6-(2-methyl-2H-1,2,3-triazol-4-yl)pyridin-3-yl)pyrido[3,4-d]pyrimidine-2,8-diamine]: 23 nM; `COc1cc(-c2cnn(C)c2)ccc1Nc1ncc2ccnc(NCC3COC3)c2n1` [Example 72, N2-(2-methoxy-4-(1-methyl-1H-pyrazol-4-yl)phenyl)-N8-(oxetan-3-ylmethyl)pyrido[3,4-d]pyrimidine-2,8-diamine]: 5 nM.

As for `COc1cc(-c2cnn(C)c2)ccc1Nc1ncc2ccnc(NC3(C)CCCCC3)c2n1` [Example 83, N2-(2-methoxy-4-(1-methyl-1H-pyrazol-4-yl)phenyl)-N8-(1-methylcyclohexyl)pyrido[3,4-d]pyrimidine-2,8-diamine], the IC50 was 19 nM. As to `COc1cc(C(=O)N2CC(OC)C2)ccc1Nc1cc2c(-c3c(C)noc3C)cccc2cn1` [Example 5, (4-((5-(3,5-dimethylisoxazol-4-yl)isoquinolin-3-yl)amino)-3-methoxyphenyl)(3-methoxyazetidin-1-yl)methanone], the IC50 is 261 nM. Next, `COc1cc(-c2cnn(C)c2)ccc1Nc1ncc2ccnc(NCC(C)(C)CO)c2n1` [Example 74, 3-((2-((2-methoxy-4-(1-methyl-1H-pyrazol-4-yl)phenyl)amino)pyrido[3,4-d]pyrimidin-8-yl)amino)-2,2-dimethylpropan-1-ol]: 4 nM; `COc1cc(-c2cnn(C)c2)ccc1Nc1ncc2ccnc(NC[C@@]3(C)CCOC3)c2n1` [Example 142, (R)—N^2-(2-methoxy-4-(1-methyl-1H-pyrazol-4-yl)phenyl)-N^3-((3-methyltetrahydrofuran-3-yl)methyl)pyrido[3,4-d]pyrimidine-2,8-diamine]: 3 nM; `COc1cc(N2CCC(C(=O)N3CCOCC3)CC2)ccc1Nc1ncc2ccnc(NCC(C)(C)C)c2n1` [Example 172, (1-(3-methoxy-4-((8-(neopentylamino)pyrido[3,4-d]pyrimidin-2-yl)amino)phenyl)piperidin-4-yl)(morpholino)methanone]: 12 nM.

With `COc1cc(-c2cnn(C)c2)ccc1Nc1ncc2ccnc(NC(C)(C)C)c2n1` [Example 82, N8-tert-butyl-N2-(2-methoxy-4-(1-methyl-1H-pyrazol-4-yl)phenyl)pyrido[3,4-d]pyrimidine-2,8-diamine], the IC50 worked out at 25 nM. As for `COCCn1c(-c2ccc(Nc3ncc4ccnc(NCC5(C)CCOC5)c4n3)c(OC)c2)cnc1C` (stereo not drawn) [Example 187], the half-maximal inhibitory concentration (IC50) worked out at 2 nM. Consider `COc1cc(-c2nncn2C)ccc1Nc1ncc2c(C)cnc(N3CC4(CCOC4)C3)c2n1` [Example 157, N-(2-methoxy-4-(4-methyl-4H-1,2,4-triazol-3-yl)phenyl)-5-methyl-8-(6-oxa-2-azaspiro[3.4]octan-2-yl)pyrido[3,4-d]pyrimidin-2-amine], for which the IC50 worked out at 6 nM. For the molecule `Cc1cc(-c2cnn(C)c2)ccc1Nc1ncc2ccnc(NCC3CC3)c2n1` [Example 99, N8-(cyclopropylmethyl)-N2-(2-methyl-4-(1-methyl-1H-pyrazol-4-yl)phenyl)pyrido[3,4-d]pyrimidine-2,8-diamine], the IC50 is 8 nM.
